Assay results: patent US4048299A, “Anticaries confectionaries and oral health products” (William Wrigley, Jr. Co., priority 1970, dated 1977)

Assays:
[1] = In vivo caries evaluation, albino hamster; conditions: Table I, 56 days
Text: (§1) Standard laboratory techniques were used to complie the data presented. In each case the aldehyde was incorporated into each specimen's food in a one percent, by weight, quantity, over a period of several weeks. In all cases, caries reduction was noted.
(§2) The aldehydes tested in vivo were pyruvaldehyde, d,1-glyceraldehyde, crystalline dimer, glycolaldehyde, octanaldehyde, nonanaldehyde, decanaldehyde, undecylenic aldehyde, and lauric aldehyde. The polyaldehydes tested were dialdehyde starch, dialdehyde starch 50 percent oxidized, dialdehyde starch 90 percent oxidized, and dialdehyde galactomannan gum.
(§3) ^(a) Agents were incorporated in the diet at a 1 percent level.

[2] = system: Mixed human oral microorganisms; assay: Acid production inhibition by aldehydes in product vehicles, broth-tube technique; format: cell-based; conditions: 1 to 5 percent aldehyde
[3] = In vivo caries evaluation, laboratory animals (summary); conditions: one percent level in diet
Text: as §1, §2

Streptococcus sp. FA-1 = assay: Acid production inhibition, broth-tube technique; conditions: single agent
Text: (§6) The data was compiled through well-known broth tube analysis techniques.
(a)Measured by broth-tube technique.

[4] = system: Mixed Oral Microorganisms; assay: Acid production inhibition, broth-tube technique; conditions: single agent
Text: as §6
(a)Measured by broth-tube technique.

[5] = In vivo caries evaluation, Osborne-Mendel strain 1 rat; parameters: species or system rat (Osborne-Mendel strain 1); Caries Score, Mean Incidence / Caries Score, Mean Extent: scale not given here; conditions: 90 days; for Caries Score, Mean Incidence / Caries Score, Mean Extent: 1 percent in diet; for Caries Extent Reduction, statistical evaluation / Caries Incidence Reduction, statistical evaluation: Student's test, 95 percent confidence limit
Text: as §1, §2, §3

[6] = In vivo caries evaluation, Osborne-Mendel strain 2 rat; parameters: species or system rat (Osborne-Mendel strain 2); conditions: Table I, 90 days
Text: as §1, §2, §3

Streptococcus spp. FA-1 = assay: Growth inhibition of oral microorganisms in vitro, pour plates; format: cell-based; conditions: Table IX
Procedure: (§4) (a)Determined on freshly grown pure cultures. Pour plates were incubated

L. casei = assay: as above; format: cell-based, Lactobacillus casei; conditions: Table IX
Procedure: as §4

[7] = system: Lactobacillus casei and Streptococcus sp. FA-1; assay: Acid-production inhibition by broth-tube assay, 0.1 percent of compound; format: cell-based; conditions: Table X; 0.1 percent of compound; read-out: Activity, Acid-Production Inhibition%
Procedure: ^(a) Activity was measured by broth-tube assay to determine percent
(§5) acid-production inhibition obtained by Lactobacillus casei and
Streptococcus sp. FA-1 in the presence of 0.1 percent of compound.
^(a) Activity was measured by broth-tube assay to determine percent o
as §5
Streptococcus sp. FA-1 in the presence of 0.1% of compound. Symbols

[8] = Student's test, 95 percent confidence limit
[9] = in compressed candy tablet, 2 h incubation
[10] = in compressed candy tablet, 5 h incubation
[11] = in compressed candy tablet, 24 h incubation
[12] = in dextrose syrup, 2 h incubation
[13] = in dextrose syrup, 5 h incubation
[14] = in dextrose syrup, 24 h incubation
[15] = in sucrose syrup, 2 h incubation
[16] = in sucrose syrup, 5 h incubation
[17] = in sucrose syrup, 24 h incubation
[18] = in tooth powder (aqueous extract), 2 h incubation
[19] = in tooth powder (aqueous extract), 5 h incubation
[20] = in tooth powder (aqueous extract), 24 h incubation
[21] = in toothpaste (aqueous extract), 2 h incubation
[22] = in toothpaste (aqueous extract), 5 h incubation
[23] = in toothpaste (aqueous extract), 24 h incubation
[24] = Table I, RCD control 23.3 (pyruvaldehyde test), 12.85 (glycolaldehyde test)
[25] = Table I, RCD control 64.8 (pyruvaldehyde test), 35.45 (glycolaldehyde test)
[26] = pour plates incubated 48 - 72 hours

Compound | Acid Production Inhibition [2, 9] [Per Cent] | Acid Production Inhibition [2, 10] [Per Cent] | Acid Production Inhibition [2, 11] [Per Cent] | Acid Production Inhibition [2, 12] [Per Cent] | Acid Production Inhibition [2, 13] [Per Cent] | Acid Production Inhibition [2, 14] [Per Cent] | Acid Production Inhibition ([2]; in mouthwash, 2 h incubation) [Per cent] | Acid Production Inhibition ([2]; in mouthwash, 5 h incubation) [Per cent] | Acid Production Inhibition ([2]; in mouthwash, 24 h incubation) [Per cent] | Acid Production Inhibition [2, 15] [Per cent] | Acid Production Inhibition [2, 16] [Per cent] | Acid Production Inhibition [2, 17] [Per cent] | Acid Production Inhibition [2, 18] [Per cent] | Acid Production Inhibition [2, 19] [Per cent] | Acid Production Inhibition [2, 20] [Per cent] | Acid Production Inhibition [2, 21] [Per cent] | Acid Production Inhibition [2, 22] [Per cent] | Acid Production Inhibition [2, 23] [Per cent] | Anticaries effect in laboratory animals [3] | Acid Production Inhibition (Streptococcus sp. FA-1; 0.02 percent) [%] | further results
O=C[C@H](O)CO (racemic) [d,1-Glyceraldehyde] | 0 | 91 | 87 | 8 | 90 | 77 | 0 | 91 | 39 | 72 | 93 | 16 | 0 | 48 | 18 | 0 | 0 | 0 | significant anticaries effects | 21 | Caries Score, Mean Incidence ([1]; 1 percent in diet, L-2000 control 27.5): 8.0; Caries Score, Mean Extent ([1]; 1 percent in diet, L-2000 control 80.9): 21.8; Caries Extent Reduction, statistical evaluation [1, 8]: Significant; Caries Incidence Reduction, statistical evaluation [1, 8]: Significant; Acid Production Inhibition (Streptococcus sp. FA-1; 0.01 percent): 4%; Acid Production Inhibition (Streptococcus sp. FA-1; 0.015 percent): 10%; Acid Production Inhibition ([4]; 0.03 percent): 7%; Acid Production Inhibition ([4]; 0.04 percent): 12%; Acid Production Inhibition ([4]; 0.05 percent): 19%; Acid Production Inhibition ([4]; 0.06 percent): 30%; Acid Production Inhibition ([4]; 0.07 percent): 40%
O=CCO [Glycolaldehyde] | 0 | 84 | 72 | 15 | 87 | 87 | 0 | 87 | 80 | 44 | 90 | 85 | 0 | 82 | 77 | 0 | 0 | 0 | significant anticaries effects | 19 | Caries Score, Mean Incidence [5, 24]: 5.53; Caries Score, Mean Extent [5, 25]: 13.19; Caries Extent Reduction, statistical evaluation ([5]; Table I): Significant; Caries Incidence Reduction, statistical evaluation ([5]; Table I): Significant; Caries Extent Reduction, statistical evaluation [6, 8]: Significant; Acid Production Inhibition (Streptococcus sp. FA-1; 0.03 percent): 39%; Acid Production Inhibition (Streptococcus sp. FA-1; 0.04 percent): 72%
CC(=O)C=O [Pyruvaldehyde] | 0 | 89 | 78 | 15 | 89 | 83 | 0 | 94 | 87 | 77.8 | 92.1 | 91.8 | 0 | 86 | 80 | 0 | 0 | 0 | significant anticaries effects | – | Caries Score, Mean Incidence [5, 24]: 8.6; Caries Score, Mean Extent [5, 25]: 21.7; Caries Extent Reduction, statistical evaluation ([5]; Table I): Significant; Caries Incidence Reduction, statistical evaluation ([5]; Table I): Significant; Caries Score, Mean Incidence ([6]; 1 percent in diet, L-2000 control 15.08 (pyruvaldehyde test), 13.94 (glycolaldehyde test)): 5.95; Caries Score, Mean Extent ([6]; 1 percent in diet, L-2000 control 38.80 (pyruvaldehyde test), 35.38 (glycolaldehyde test)): 14.55; Caries Extent Reduction, statistical evaluation [6, 8]: Significant; Caries Incidence Reduction, statistical evaluation [6, 8]: Significant; Acid Production Inhibition ([2]; in hard candy, 2 h incubation): 20 Per Cent; Acid Production Inhibition ([2]; in hard candy, 5 h incubation): 93 Per Cent; Acid Production Inhibition ([2]; in hard candy, 24 h incubation): 84 Per Cent; Solubility: water soluble; Acid Production Inhibition (Streptococcus sp. FA-1; 0.001 percent): 10%; Acid Production Inhibition (Streptococcus sp. FA-1; 0.002 percent): 35%; Acid Production Inhibition ([4]; 0.005 percent): 5%; Acid Production Inhibition ([4]; 0.007 percent): 5%; Acid Production Inhibition ([4]; 0.009 percent): 7%; Acid Production Inhibition ([4]; 0.011 percent): 7%
CCCCCCCCCC=O [Decanaldehyde] | 100 | 100 | 19 | 0 | 95 | 91 | – | – | – | 78 | 94 | 95 | – | – | – | 0 | 0 | 0 | significant anticaries activity | – | Caries Score, Mean Incidence ([5]; Table II, RCD control 19.0 (octan-), 14.1 (nonan-), 17.6 (decan-), 22.3 (undecylenic)): 10.4; Caries Score, Mean Extent ([5]; Table II, RCD control 49.6 (octan-), 34.3 (nonan-), 46.0 (decan-), 54.6 (undecylenic)): 24.1; Caries Extent Reduction, statistical evaluation ([5]; Table II): Significant; Caries Incidence Reduction, statistical evaluation ([5]; Table II): Significant; Bacterial Population, Experimental (Streptococcus spp. FA-1; control 2 × 10^8 to 5 × 10^8): 0; Inhibition (growth) (Streptococcus spp. FA-1; [26]): 100%; Bacterial Population, Experimental (L. casei; control 8 × 10^8 to 1 × 10^9): 4 × 10^2; Inhibition (growth) (L. casei; [26]): > 99.99%; inhibition at 0.1 % [7]: 99 to 100%
